{
  "source": "patent US8486901B2",
  "about": "(priority 2009, dated 2013)",
  "tested_on": "Kunming mice",
  "details": "mouse, in vivo",
  "note": "Values joined by “and” are separate entries in the source; they are usually repeats but may differ in a detail not shown here. Identical values can stand only once.",
  "data": [
    {"smiles": "N=C1NC(O)C2C3OC4(O)OC(C(O)C2(N1)[C@@H]4O)C3(O)COC1OC(CO)C(O)C(O)C1O", "note": "(stereo partly drawn) [Formula 11-Gal-TTX, 11-galactopyranosyl-TTX]", "values": [
      {"measurement": "Effect on pain (result in words)", "result": "inhibitory effect on pain"},
      {"measurement": "Inhibition rate (%)", "result": "60.6% and 30.3% and 51.7%"},
      {"measurement": "Number of writhes", "result": "12.50 ± 4.7 and 22.10 ± 6.4 and 15.30 ± 6.4"}
    ]}
  ]
}
